According to ChEMBL document CHEMBL4842344, “Design, synthesis and biological activity evaluation of novel scopoletin-NO donor derivatives against MCF-7 human breast cancer in vitro and in vivo” (Eur J Med Chem, 2021):
Each block holds one molecule with its values, some of them ahead of it. Activity calls are given as the source filed them. The calls are words filed in the database; no cut-off is given here.

Experiments:
MCF7 [1] = test: Antiproliferative activity against human MCF7 cells assessed as inhibition of cell growth measured after 48 hrs by MTT assay; format: functional, cell-based; settings: MCF7, 48 h
MDA-MB-231 = test: Antiproliferative activity against human MDA-MB-231 cells assessed as inhibition of cell growth measured after 48 hrs by MTT assay; format: functional, cell-based; settings: MDA-MB-231, 48 h
MCF-10A = test: Cytotoxicity against human MCF-10A cells assessed as reduction in cell viability measured after 48 hrs by MTT assay; format: cell-based
MCF7 [2] = test: Inhibition of PI3K/AKT signalling pathway in human MCF7 cells assessed as reduction in phosphorylated AKT expression measured after 24 hrs by western blot analysis; format: cell-based; settings: dose 0.5-2 µM
MCF7 [3] = test: Inhibition of PI3K/AKT signalling pathway in human MCF7 cells assessed as reduction in phosphorylated PI3K expression measured after 24 hrs by western blot analysis; format: cell-based; settings: dose 0.5-2 µM
MCF7 [4] = test: Potency index, ratio of scopoletin derivative 5 IC50 to test compound IC50 for human MCF7 cells assessed as inhibition of cell growth measured after 48 hrs by MTT assay; format: functional
MCF7 [5] = test: Inhibition of cell proliferation in human MCF7 cells assessed as increase in intracellular NO production at 25 uM measured after 2.5 hrs by nitric oxide assay; format: functional, cell-based
MCF7 [6] = test: Antiproliferative activity against human MCF7 cells assessed as inhibition of cell proliferation at 2 uM pretreated with hemoglobin NO scavenger for 2 hrs followed by addition of compound and measured after 48 hrs by MTT assay; format: functional, cell-based
MCF7 [7] = test: Induction of cell cycle arrest in human MCF7 cells assessed as accumulation of cells in G1 phase at 0.25 uM measured after 24 hrs by propidium iodide staining based flow cytometry analysis (Rvb= 54.96%); format: functional
MCF7 [8] = test: Induction of cell cycle arrest in human MCF7 cells assessed as accumulation of cells in S phase at 0.25 uM measured after 24 hrs by propidium iodide staining based flow cytometry analysis (Rvb= 25.71%); format: functional
MCF7 [9] = test: Induction of cell cycle arrest in human MCF7 cells assessed as accumulation of cells in G2 phase at 0.25 uM measured after 24 hrs by propidium iodide staining based flow cytometry analysis (Rvb= 18.5%); format: functional
MCF7 [10] = test: Induction of cell cycle arrest in human MCF7 cells assessed as accumulation of cells in G1 phase at 0.5 uM measured after 24 hrs by propidium iodide staining based flow cytometry analysis (Rvb= 54.96%); format: functional
MCF7 [11] = test: Induction of cell cycle arrest in human MCF7 cells assessed as accumulation of cells in S phase at 0.5 uM measured after 24 hrs by propidium iodide staining based flow cytometry analysis (Rvb= 25.71%); format: functional
MCF7 [12] = test: Induction of cell cycle arrest in human MCF7 cells assessed as accumulation of cells in G2 phase at 0.5 uM measured after 24 hrs by propidium iodide staining based flow cytometry analysis (Rvb= 18.5%); format: functional
MCF7 [13] = test: Induction of cell cycle arrest in human MCF7 cells assessed as accumulation of cells in G1 phase at 1 uM measured after 24 hrs by propidium iodide staining based flow cytometry analysis (Rvb= 54.96%); format: functional
MCF7 [14] = test: Induction of cell cycle arrest in human MCF7 cells assessed as accumulation of cells in S phase at 1 uM measured after 24 hrs by propidium iodide staining based flow cytometry analysis (Rvb= 25.71%); format: functional
MCF7 [15] = test: Induction of cell cycle arrest in human MCF7 cells assessed as accumulation of cells in G2 phase at 1 uM measured after 24 hrs by propidium iodide staining based flow cytometry analysis (Rvb= 18.5%); format: functional
MCF7 [16] = test: Induction of cell cycle arrest in human MCF7 cells assessed as accumulation of cells in G2/M phase at 0.25 to 1 uM measured after 24 hrs by propidium iodide staining based flow cytometry analysis (Rvb= 19.7%); format: functional; settings: dose 0.25-1 µM
MCF7 [17] = test: Induction of cell cycle arrest in human MCF7 cells assessed as accumulation of cells in sub G1 phase at 0.25 to 1 uM measured after 24 hrs by propidium iodide staining based flow cytometry analysis (Rvb= 21.1%); format: functional; settings: dose 0.25-1 µM
MCF7 [18] = test: Inhibition of PI3K/AKT signalling pathway in human MCF7 cells assessed as reduction in PI3K expression at 0.5 to 2 uM measured after 24 hrs by western blot analysis; format: cell-based; settings: dose 0.5-2 µM
MCF7 [19] = test: Inhibition of PI3K/AKT signalling pathway in human MCF7 cells assessed as reduction in AKT expression at 0.5 to 2 uM measured after 24 hrs by western blot analysis; format: cell-based; settings: dose 0.5-2 µM
MCF7 [20] = test: Induction of apoptosis in human MCF7 cells assessed as live cells at 0.25 uM measured after 24 hrs by Annexin-V FITC/PI staining based flow cytometry analysis (Rvb= 93.0%); format: functional
MCF7 [21] = test: Induction of apoptosis in human MCF7 cells assessed as early apoptotic cells at 0.25 uM measured after 24 hrs by Annexin-V FITC/PI staining based flow cytometry analysis (Rvb= 1.33%); format: functional
MCF7 [22] = test: Induction of apoptosis in human MCF7 cells assessed as late apoptotic cells at 0.25 uM measured after 24 hrs by Annexin-V FITC/PI staining based flow cytometry analysis (Rvb= 5.61%); format: functional
MCF7 [23] = test: Induction of apoptosis in human MCF7 cells assessed as dead cells at 0.25 uM measured after 24 hrs by Annexin-V FITC/PI staining based flow cytometry analysis (Rvb= 0.06%); format: functional
MCF7 [24] = test: Induction of apoptosis in human MCF7 cells assessed as live cells at 0.5 uM measured after 24 hrs by Annexin-V FITC/PI staining based flow cytometry analysis (Rvb= 93.0%); format: functional
MCF7 [25] = test: Induction of apoptosis in human MCF7 cells assessed as early apoptotic cells at 0.5 uM measured after 24 hrs by Annexin-V FITC/PI staining based flow cytometry analysis (Rvb= 1.33%); format: functional
MCF7 [26] = test: Induction of apoptosis in human MCF7 cells assessed as late apoptotic cells at 0.5 uM measured after 24 hrs by Annexin-V FITC/PI staining based flow cytometry analysis (Rvb= 5.61%); format: functional
MCF7 [27] = test: Induction of apoptosis in human MCF7 cells assessed as dead cells at 0.5 uM measured after 24 hrs by Annexin-V FITC/PI staining based flow cytometry analysis (Rvb= 0.06%); format: functional
MCF7 [28] = test: Induction of apoptosis in human MCF7 cells assessed as live cells at 1 uM measured after 24 hrs by Annexin-V FITC/PI staining based flow cytometry analysis (Rvb= 93.0%); format: functional
MCF7 [29] = test: Induction of apoptosis in human MCF7 cells assessed as early apoptotic cells at 1 uM measured after 24 hrs by Annexin-V FITC/PI staining based flow cytometry analysis (Rvb= 1.33%); format: functional
MCF7 [30] = test: Induction of apoptosis in human MCF7 cells assessed as late apoptotic cells at 1 uM measured after 24 hrs by Annexin-V FITC/PI staining based flow cytometry analysis (Rvb= 5.61%); format: functional
MCF7 [31] = test: Induction of apoptosis in human MCF7 cells assessed as dead cells at 1 uM measured after 24 hrs by Annexin-V FITC/PI staining based flow cytometry analysis (Rvb= 0.06%); format: functional
MCF7 [32] = test: Induction of apoptosis in human MCF7 cells assessed as upregulation of Bax expression at 0.5 to 2 uM measured after 24 hrs by western blot analysis; format: functional, cell-based; settings: dose 0.5-2 µM
MCF7 [33] = test: Induction of apoptosis in human MCF7 cells assessed as upregulation of Bad expression at 0.5 to 2 uM measured after 24 hrs by western blot analysis; format: functional, cell-based; settings: dose 0.5-2 µM
MCF7 [34] = test: Induction of apoptosis in human MCF7 cells assessed as downregulation of Bcl-2 expression at 0.5 to 2 uM measured after 24 hrs by western blot analysis; format: functional, cell-based; settings: dose 0.5-2 µM
MCF7 [35] = test: Induction of apoptosis in human MCF7 cells assessed as increase in cleavage of PARP-1 at 0.5 to 2 uM measured after 24 hrs by western blot analysis; format: functional, cell-based; settings: dose 0.5-2 µM
MCF7 [36] = test: Antitumor activity against human MCF7 cells xenografted in ip dosed BALB/c nude mouse assessed as tumor growth inhibition administered once every 2 days for 21 consecutive days; format: functional, organism-based; settings: time 21.0 day
MCF7 [37] = test: Antitumor activity against human MCF7 cells xenografted in BALB/c nude mouse assessed as reduction in tumor volume at 30 mg/kg, ip administered once every 2 days for 21 consecutive days relative to control; format: functional; design: scale not given: the % may be the effect or the level left; settings: time 21 day
MCF7 [38] = test: Antitumor activity against human MCF7 cells xenografted in BALB/c nude mouse assessed as tumor growth inhibition at 60 mg/kg, ip administered once every 2 days for 21 consecutive days relative to control; format: functional; settings: 504 h, time 21 day, read-out: TGI
MCF7 [39] = test: Antitumor activity against human MCF7 cells xenografted in BALB/c nude mouse assessed as reduction in tumor weight at 30 to 60 mg/kg, ip administered once every 2 days for 21 consecutive days; format: functional, organism-based; settings: dose 30-60 mg/kg, time 21.0 day
[40] = Toxicity in BALB/c mouse xenografted with human MCF7 cells assessed as weight loss at 30 to 60 mg/kg, ip measured after 21 days; format: organism-based; settings: in vivo, 504 h, dose 30-60 mg/kg, time 21 day
[41] = Toxicity in BALB/c mouse xenografted with human MCF7 cells assessed as effect on heart at 30 to 60 mg/kg, ip measured after 21 days by hematoxylin and eosin staining based histopathological analysis; format: organism-based; settings: in vivo, 504 h, dose 30-60 mg/kg, time 21 day
[42] = Toxicity in BALB/c mouse xenografted with human MCF7 cells assessed as effect on lung at 30 to 60 mg/kg, ip measured after 21 days by hematoxylin and eosin staining based histopathological analysis; format: organism-based; settings: in vivo, 504 h, dose 30-60 mg/kg, time 21 day
[43] = Toxicity in BALB/c mouse xenografted with human MCF7 cells assessed as effect on liver at 30 to 60 mg/kg, ip measured after 21 days by hematoxylin and eosin staining based histopathological analysis; format: organism-based; settings: in vivo, 504 h, dose 30-60 mg/kg, time 21 day
[44] = Toxicity in BALB/c mouse xenografted with human MCF7 cells assessed as effect on spleen at 30 to 60 mg/kg, ip measured after 21 days by hematoxylin and eosin staining based histopathological analysis; format: organism-based; settings: in vivo, 504 h, dose 30-60 mg/kg, time 21 day
[45] = Toxicity in BALB/c mouse xenografted with human MCF7 cells assessed as effect on kidney at 30 to 60 mg/kg, ip measured after 21 days by hematoxylin and eosin staining based histopathological analysis; format: organism-based; settings: in vivo, 504 h, dose 30-60 mg/kg, time 21 day

IC50 (MCF7 [1]): 510 nM | IC50 (MDA-MB-231): 550 nM
Compound: COc1cccc2c1C(=O)c1c(O)c3c(c(O)c1C2=O)C[C@@](O)(C(=O)CO)C[C@@H]3O[C@H]1C[C@H](N)[C@H](O)[C@H](C)O1 [DOXORUBICIN]
IC50 (MCF-10A): 490 nM

Compound: COc1cc2cc(C(=O)NCc3ccc(F)cc3)c(=O)oc2cc1OCCCOc1no[n+]([O-])c1S(=O)(=O)c1ccccc1
inhibition (MCF7 [2]): Dose-Dependent Effect | inhibition (MCF7 [3]): Dose-Dependent Effect | IC50 (MCF7 [1]): 370 nM | IC50 (MDA-MB-231): 770 nM | IC50 (MCF-10A): 8460 nM | Ratio IC50 (MCF7 [4]): 5 | Activity (MCF7 [5]): Active | Activity (MCF7 [6]): inactive | Activity (MCF7 [7]): 52.88% | Activity (MCF7 [8]): 20.8% | Activity (MCF7 [9]): 25.76% | Activity (MCF7 [10]): 40.11% | Activity (MCF7 [11]): 19.05% | Activity (MCF7 [12]): 38.44% | Activity (MCF7 [13]): 36.65% | Activity (MCF7 [14]): 18.16% | Activity (MCF7 [15]): 44.96% | Activity (MCF7 [16]): 47.1% | Activity (MCF7 [17]): 50% | inhibition (MCF7 [18]): inactive | inhibition (MCF7 [19]): inactive | Activity (MCF7 [20]): 87.5% | Activity (MCF7 [21]): 5.72% | Activity (MCF7 [22]): 6.53% | Activity (MCF7 [23]): 0.153% | Activity (MCF7 [24]): 83.1% | Activity (MCF7 [25]): 7.49% | Activity (MCF7 [26]): 9.19% | Activity (MCF7 [27]): 0.196% | Activity (MCF7 [28]): 62% | Activity (MCF7 [29]): 9.38% | Activity (MCF7 [30]): 27.2% | Activity (MCF7 [31]): 1.41% | Activity (MCF7 [32]): Active | Activity (MCF7 [33]): Active | Activity (MCF7 [34]): Dose-Dependent Effect | Activity (MCF7 [35]): Active | Activity (MCF7 [36]): Dose-Dependent Effect | Activity (MCF7 [37]): 63.3% | inhibition in vivo at 60 mg/kg (MCF7 [38]): 75.2% | Activity (MCF7 [39]): Active | Activity [40]: Non-Toxic | Activity [41]: Non-Toxic | Activity [42]: Non-Toxic | Activity [43]: Non-Toxic | Activity [44]: Non-Toxic | Activity [45]: Non-Toxic

IC50 (MCF7 [1]): 2020 nM | IC50 (MDA-MB-231): 1390 nM
Compound: COc1cc2cc(N)c(=O)oc2cc1OCCCOc1no[n+]([O-])c1S(=O)(=O)c1ccccc1
IC50 (MCF-10A): 6450 nM
